According to patent US9682070B2, “Method and compositions for treatment or prevention of inflammatory conditions” (University of Rochester, priority 2007, dated 2017):
Entries after “also recorded” stand apart in the source; their conditions may differ.

What was measured:
[1] = tested on: NF-κB-dependent promoter activity; test: IL-1- and LPS-induced NF-κB-dependent promoter activity; assay type: cell-based
[2] = tested on: pro-inflammatory mediators at mRNA levels; test: Q-PCR of TNFα-induced pro-inflammatory mediators in RAW264.7; assay type: cell-based, mouse; conditions: TNFα 10 ng/ml 6 hours, vinpocetine 50 μM
Protocol: (§1) Expression of TNFα, IL-1β, IL-8, MCP-1 and VCAM-1, ICAM-1, MIP-1 at mRNA levels were measured by Real-time quantitative RT-PCR (Q-PCR).
(§2) Total RNA was isolated with TRIzol reagent (Invitrogen) by following the manufacturer's instructions. For the reverse transcription reaction, TaqMan reverse transcription reagents (Applied Biosystems) were used. In brief, the reverse transcription reaction was performed for 60 min at 37° C., followed by 60 min at 42° C. by using oligo (dT) and random hexamers. PCR amplifications were performed by using SYBR Green Universal Master Mix. In brief, reactions were performed in duplicate containing 2× Universal Master Mix, 1 μl of template cDNA and 100 nM primers in a final volume of 12.5 μl, and they were analyzed in a 96-well optical reaction plate (Applied Biosystems). The relative quantities of mRNAs were obtained by using the comparative Ct method and were normalized with predeveloped Taqman assay reagent rat or mouse glyceraldehydes-3-phosphate dehydrogenase or human cyclophilin as an endogenous control (Applied Biosystems).

IKK [3] = test: In vitro IKK kinase assay, compound applied directly to the IKK immune complex; assay type: biochemical, rat; conditions: IKK immune complex in the test tube
[4] = tested on: TNFα-induced lung inflammation; test: Mouse model of lung inflammation induced by TNFα; assay type: in vivo; conditions: mice; TNFα i.t. (500 ng per mouse)
Protocol: Lung tissues were collected and then stored at -80° C. for mRNA expression analysis. For polymorphonuclear neutrophil (PMN) recruitment analysis, broncho-alveolar lavage (BAL) was performed by cannulating the trachea with sterilized PBS, and cells from BAL was stained with Hemacolor (EM Science) after cytocentrifugation (Shandon Cytospin4, Thermo Electronic Co.). Three mice were used for each inoculation group. All animal experiments were approved by the institutional Animal Care and Use Committee at University of Rochester.

IKK [5] = test: In vitro IKK kinase assay in the presence of cell lysates from vinpocetine-treated VSMCs; assay type: biochemical, rat
Protocol: Intensities of the GST-IκBα bands in the autoradiogram were measured by densitometric scanning.

[6] = tested on: monocyte chemotaxis to VSMCs; test: Monocyte chemotaxis assay (transwell migration, Boyden chamber); assay type: cell-based, rat; conditions: various doses; TNFα 10 ng/ml 9 hours; VSMC-conditional medium
[7] = tested on: pro-inflammatory mediators at mRNA levels; test: Q-PCR of TNFα-induced pro-inflammatory mediators in HUVECs; assay type: cell-based, human; conditions: TNFα 10 ng/ml 6 hours, vinpocetine 50 μM
Protocol: as §1, §2

IKK [8] = test: IKK immune complex kinase assay from TNFα-treated VSMCs; assay type: cell-based, rat; conditions: for TNFα-induced IKK kinase activity: rat aortic VSMCs treated with TNFα 10 min in the presence of compound; for effect on the ability of vinpocetine on IKK kinase activity, IκB phosphorylation, IκB degradation or NF-κB-dependent transcriptional activity: co-treatment with vinpocetine
Protocol: (§3) Rat aortic VSMCs were treated with TNFα (10 ng/ml) for different time periods (0-30 minutes) as indicated in the presence or absence of vinpocetine ([…]). Western Blotting analysis was carried out to evaluate the levels of phosphorylated IκBα, total IκBα- and β-actin. […] IKK kinase activity was analyzed by an immune complex kinase assay. […] VSMCs were treated with TNFα for 10 min in the presence of various doses of vinpocetine as indicated. FIG. 8D illustrates the relative IKK activity as indicated. Intensities of the GST-IκBα bands in the autoradiogram were measured by densitometric scanning. Results were normalized to the control ([vinpocetine]=0) that is arbitrarily set to 100%. *p<0.05, **p<0.01 vs. vitipocetine at zero. FIGS. 8E-H illustrate the effects of vinpocetine on NF-κB activation induced by expressing constitutive active form of either MEKK1 (CA-MEKK1) (FIG. 8E), IKKα (CA-IKKα) (FIG. 8F), IKKβ (CA-IKKβ) (FIG. 8G), or WT p65 (FIG. 8H) in VSMCs.
(§4) Rat aortic VSMCs were treated with TNFα (10 ng/ml) for 10 minutes in the presence of either 50 μM vinpocetine, 30 μM nifedipine (Ca^2+ channel blocker), 15 μM IC86340 (PDE1 inhibitor), 2 mM EGTA (extracellular Ca^2+ chelator), or 30 μM BAPTA/AM (intracellular Ca^2+ chelator). […] Western Blotting analysis was carried out to evaluate the levels of phosphorylated IκBα total IκBα and β-actin. Data represent at least three independent experiments.
Cell lysates were prepared as described above. 1 mg of cell lysates were incubated with 1-2 μg of anti-IKKα (Santa Cruz, Calif., USA) for 1-2 h, followed by 50μl of 50% of slurry protein A/G plus-Agarose for another 1 h or overnight at 4° C. Immunoprecipitants were then washed two times with lysis buffer and once with kinase buffer without ATP. In vitro kinase assay were performed in kinase buffer containing 20 mM HEPES (pH 7.7), 2 mM MgCl2, 2 mM MnCl2, 10 μM ATP, 5 μCi of [γ-^32P]ATP (Amersham Biosciences, NJ, USA), 10 mM glycerophosphate, 10 mM NaF, 100 μM Na3VO4, 1 mM benzamidine, 2 μM PMSF, 1 mM DTT and protease inhibitor cocktail (Sigma, MO, USA) at 30° C. for 30-60 min, in the presence of substrate GST-IκBα (AA 1-54) (kindly provided by Dae-Myung Jue, Catholic University of Korea). Proteins were separated by 12% SDS-PAGE and subjected to autoradiography. Phosphorylation of GST-IκBα was quantified in NIH Image 1.60.
Because IKK is known as the major upstream kinase for IκBα phosphorylation and degradation, whether vinpocetine inhibits IκB phosphorylation and degradation via inhibition of IKK was determined. TNFα-induced activation of IKK was confirmed by performing IKK kinase assay in TNFα-stimulated VSMCs. The crude cell lysates from treated VSMCs were first immunoprecipitated with an anti-IKKα antibody and IKK kinase activity was then measured in vitro with IKK immune complexes incubated with the substrate GST-IκBα in the presence of [γ-^32P]-ATP.

[9] = tested on: LPS-induced lung inflammation; test: Mouse model of lung inflammation induced by LPS; assay type: in vivo; conditions: mice
[10] = tested on: IκBα phosphorylation and degradation; test: Western blot of TNFα-induced IκBα phosphorylation and degradation in VSMCs; assay type: cell-based; conditions: rat aortic VSMCs; TNFα 10 ng/ml; vinpocetine 50 μM, nifedipine 30 μM, IC86340 15 μM, EGTA 2 mM, BAPTA/AM 30 μM
Protocol: as §3, §4
Cells lysates were prepared in the buffer containing 20 mM Tris-HCl (pH8.0), 0.5 M NaCl, 0.25% Triton X-100, 1 mM EDTA, 1 mM EGTA, 10 mM-glycerophosphate, 10 mM NaF, 100 μM Na3VO4, 1 mM benzamidine, 2 μM PMSF, 1 mM DTT and protease inhibitor cocktail (Sigma, MO. USA), by scraping, sonication, and centrifugation at 12,000 g for 15 min. Supernatant were collected and then subjected to SDS-PAGE and Western blot analysis with indicated antibodies.

[11] = tested on: cell morphology and viability; test: Cytotoxic effects on cell morphology and viability; assay type: cell-based; conditions: at the tested doses
[12] = tested on: NF-κB-dependent promoter activity; test: NF-κB-Luc dual luciferase reporter assay in rat aortic VSMCs
[13] = tested on: pro-inflammatory mediators at mRNA levels; test: Q-PCR of TNFα-induced pro-inflammatory mediators in A549 cells; assay type: cell-based, human; conditions: TNFα 10 ng/ml 6 hours, vinpocetine 50 μM
Protocol: as §1, §2

[14] = tested on: pro-inflammatory mediators at mRNA levels; test: Q-PCR of TNFα-induced pro-inflammatory mediators in rat aortic VSMCs; assay type: cell-based; conditions: TNFα 10 ng/ml 6 hours, vinpocetine 50 μM
Protocol: as §1, §2

[15] = patients, literature; cited from earlier work
[16] = tested on: U937 monocytes adhering to HUVECs; test: Monocyte adhesion assay; assay type: cell-based, human; conditions: 50 μM vinpocetine 30 min, then TNFα 10 ng/ml 6 hours
NF-κB activation = test: NF-κB luciferase activity induced by CA-MEKK1, CA-IKKα, CA-IKKβ or WT p65 in VSMCs; assay type: cell-based, rat

## CCOC(=O)C1=C[C@]2(CC)CCCN3CCc4c(n1c1ccccc41)[C@@H]32 [vinpocetine, (+)-vinpocetine]
[1]
  IL-1- and LPS-induced NF-κB-dependent promoter activity: inhibited
[2]
  TNFα-induced expression of TNFα, IL-1β and MIP-2 mRNA: inhibit
IKK [3]
  IKK activity, compound directly applied to IKK: No significant inhibitory effect; also recorded: did not inhibit IKK activity
[4]
  induction of inflammatory mediators and PMN infiltration in the lungs: also inhibited
IKK [5]; cell lysates
  inhibition of IKK activity by cell lysates from vinpocetine-treated cells: 50%
  vinpocetine treatment concentration of lysate required for a significant effect on IKK inhibition ex vivo: 100 µM
IKK [5]; lysates of VSMCs preincubated with vinpocetine
  IKK activity in the presence of cell lysates from vinpocetine-treated cells: inhibited IKK activity
[6]
  monocyte chemotaxis to VSMCs induced by TNFα: inhibited monocyte chemotaxis to VSMCs induced by TNFα in a dose-dependent manner
[7]
  TNFα-induced expression of TNFα, IL-1β, IL-8, MCP-1, VCAM-1 and ICAM-1 mRNA: inhibit
IKK [8]
  TNFα-induced IKK kinase activity: inhibited TNFα-induced IKK activity in a dose-dependent manner
[9]; LPS 2 μg/mouse i.t., vinpocetine 2.5, 5, 10 mg/kg i.p.
  induction of TNFα, IL-1β and MIP-2 mRNA in the lungs: dose-dependently inhibited; also recorded: significantly inhibited
[9]; LPS i.t., vinpocetine 10 mg/kg i.p.
  PMN infiltration in BAL fluids: significantly inhibited
[10]
  TNFα-induced IκBα phosphorylation and degradation: markedly inhibited
[11]
  cytotoxic effects on cell morphology and viability: no significant cytotoxic effects
[12]; rat aortic VSMCs, TNFα 10 ng/ml 6 hours, various doses
  TNFα-induced NF-κB-dependent promoter activity: potently inhibited
[13]
  TNFα-induced expression of TNFα, IL-1β and IL-8 mRNA: inhibit
[14]
  TNFα-induced expression of TNFα, IL-1β, IL-8, MCP-1 and VCAM-1 mRNA: potently inhibited
[15]
  side effects, toxicity or contraindications at the therapeutic doses: no reports of significant side effects, toxicity or contraindications
[16]
  monocyte adhesion to HUVECs: markedly inhibited
NF-κB activation; constitutively active IKKα
  NF-κB activation induced by CA-IKKα: inhibited
NF-κB activation; constitutively active IKKβ
  NF-κB activation induced by CA-IKKβ: inhibited
NF-κB activation; constitutively active MEKK1
  CA-MEKK1-induced NF-κB activation: significantly inhibited

## CC(=O)OCOC(=O)CN(CC(=O)OCOC(C)=O)c1ccccc1OCCOc1ccccc1N(CC(=O)OCOC(C)=O)CC(=O)OCOC(C)=O [BAPTA/AM]
IKK [8]
  effect on the ability of vinpocetine on IKK kinase activity, IκB phosphorylation, IκB degradation or NF-κB-dependent transcriptional activity: did not significantly affect
  TNFα-induced IKK kinase activity: none of them exhibited any significant inhibitory effects
[10]
  TNFα-induced IκBα phosphorylation and degradation: none of them exhibited any significant inhibitory effects

## NC1=N[C@H](O)[C@H]2[C@H]3O[C@]4(O)O[C@@H]([C@@H](O)[C@@]2(N1)[C@@H]4O)[C@]3(O)CO [tetrodotoxin]
[12]
  effect on the effect of vinpocetine on NF-κB-dependent transcription: did not alter

## O=C(O)CN(CCOCCOCCN(CC(=O)O)CC(=O)O)CC(=O)O [EGTA]
IKK [8]
  effect on the ability of vinpocetine on IKK kinase activity, IκB phosphorylation, IκB degradation or NF-κB-dependent transcriptional activity: did not significantly affect
  TNFα-induced IKK kinase activity: none of them exhibited any significant inhibitory effects
[10]
  TNFα-induced IκBα phosphorylation and degradation: none of them exhibited any significant inhibitory effects
